Measured values: patent US4711898A, “4-quinolone derivatives having anti-inflammatory, anti-allergic, antitussive, expectorant and antithrombotic activity” (Nippon Shinyaku Co., Ltd., priority 1982, dated 1987)
Like-named read-outs stand apart in the source and are kept apart here.

Key:
[1] = test system: carrageenin edema; experiment: Carrageenin edema at the hind foot of rats; format: in vivo, SD-strain rats; details: Rattus norvegicus, po, 3 h, read-out: % Inhibition (carrageenin edema)
Experimental: The anti-inflammatory action of the compounds of the present invention were evaluated by measuring the inhibition against carrageenin edema as set forth below. Carrageenin edema at the hind foot of rats: Experimental method. SD-strain rats of body weights of around 150 grams were used, each group consisting of five rats. A solution (0.1 ml) of 0.5% carrageenin dissolved in physiological saline water was subcutaneously injected into the right hind foot pat of the rats and, one hour prior to the injection of carrageenin, 200 mg/kg of test compound was given per os. Foot volumes of the rats before the carrageenin treatment and those of three hours after the treatment were measured and the differences were compared with those of the control group to adopt as a target of the effect of the compounds.

[2] = test system: passive cutaneous anaphylaxis (DNP-As homocytotropic antiserum); experiment: passive cutaneous anaphylatic assay (PCA) in rats; format: in vivo, Wistar strain rats; details: Rattus norvegicus, po, 1 h, 10 mg/kg orally, one hour before antigen, read-out: PCA Inhibition Ratio %
Experimental: (§1) The compounds of the present invention have been evaluated for their anti-allergenic action by passive cutaneous anaphylatic assay (PCA) in rats and by measuring the anti-SRS-A action using ileus of guinea pigs.
(i) Antiserum abundant in homocytotropic antibody is prepared by the same method as Tada and Okumura did (cf. Journal of Immunology, vol. 106, page 1002, 1971). Thus, 1 mg (calculated as an amount of protein) of DNP-As (2,4-dinitrophenylcoupled ascaris extract) prepared by methods of Strejan and Campbell (Journal of Immunology, vol. 98, p. 893, 1967) and of Eisen (Journal of Amer. Chem. Soc., vol. 75, p 4593, 1953) and 1×10^10pertussis vaccine are administered to each paw of Wistar strain rats (180 to 200 grams body weights) by dividing the dose by four. Five days later, 0.5 mg of DNP-As is administered into muscle of back. Eight days later from the initial immunization, blood is taken from discending aorta under anesthetizing with ether, the resulting serum is stored at -80° and is melted before use.
(ii) Effect of tested compounds is investigated as follows:
Anti-serum obtained by th method (i) is diluted with physiological saline solution double by double successively and 0.05 ml of each diluted solution is administered into the back of Wistar strain rats (140 to 160 grams body weight) intradermally. After 72 hours, a solution of 2 mg (calculated as protein) of DNP-As and 2.5 mg of Evans Blue dissolved in 1 ml of physiological saline solution is administered intraveously at a dose of 5 ml/kg. After 30 minutes from the antigen solution administration, the animals are killed and the diameters of blue spots which appeared at the place where antiserum was administered were measured. The PCA test is conducted by the same method as already described using a diluted solutions of antiserum which always show 10 mm or more of spot diameters and the effect of the test compounds is judged. Thus antiserum diluted solutions are administered into two places in the back. Test compounds are administered orally at the dose of 10 mg/kg one hour before administration of the antigen solution. From the skin of reacted parts of killed animals, leaked or emitted dyestuff is extracted and the amount of the dyestuff is measured. The inhibition ratio is calculated by the following expression: [formula] in which A' is an amount of dyestuff in the group treated with the test compounds and A is that in the control group.

[3] = test system: SRS-A (slow reacting substance of anaphylaxis) contraction of ileum; experiment: Anti-SRS-A action using ileus of guinea pigs; format: cell-based, Hartley strain male guinea pigs; details: Cavia porcellus, 5 min, 1/1000 mM; guinea pig ileum; SRS-A 20 units; compound five minutes before; read-out: 1/1000 mM SRS-A Inhibition Ratio %
Experimental: as §1
Anti-SRS-A action (An anti-acton against slow reacting substance of anaphylaxis).
Hartley strain male guinea pigs (300 to 350 grams body weight) are killed and 1.0 to 1.5 cm of ileum is immeidiately excised from ileocecal parts and is suspended in 10 ml of Tyrode solution (95% 02 -5% CO2 saturation) containing 10^-7 g/ml of atropine and 10^-6 g/ml of pyrilamine. SRS-A (20 units) (the amount of SRS-A showing the same contradiction as 5 ng of histamine is defined as 1 unit) prepared by using sensitized guinea pig lung is given to cause contraction there. Then antagonistic action of test compounds treated five minutes ago against the contraction is measured and recorded via isotonic transducer. [formula] in which A' is a height of contraction of SRS-A+test compound and A is that of SRS-A.

[4] = 200 mg/kg per os, one hour before carrageenin, foot volume three hours after

Structure (SMILES) | inhibition in vivo at 200 mg/kg [1] | inhibition in vivo at 10 mg/kg [2] | inhibition at 1 µM [3] | inhibition in vivo at 200 mg/kg [1, 4]
CC(=O)Oc1ccccc1C(=O)O [Acetylsalicylic Acid, reference compound] | 31.6% |  |  | 
COC(=O)c1ccc2c(c1)C(=O)CC(c1ccccc1)=N2 [Example 1, Methyl 2-phenyl-4-quinolone-6-carboxylate] |  | 25.4% | 77% | 34%
CCOC(=O)c1ccc2c(c1)C(=O)CC(c1ccccc1)=N2 [Example 4, Ethyl 2-phenyl-4-quinolone-6-carboxylate] |  | 25.7% | 27.5% | 14.2%
O=C(O)c1ccc2[nH]c(-c3ccccc3Cl)cc(=O)c2c1 [Example 22] |  | 35.8% | 26.4% | 14.8%
O=C(O)c1ccc2[nH]c(-c3ccc(Cl)c(Cl)c3)cc(=O)c2c1 [Example 38] |  | 20.4% | 20.5% | 12.8%
COC(=O)c1ccc2[nH]c(-c3cc(Cl)ccc3Cl)cc(=O)c2c1 [Example 39] |  | 24.8% | 66% | 30%
COC(=O)c1ccc2[nH]c(-c3ccccc3C)cc(=O)c2c1 [Example 41] |  | 29.5% | 29.1% | 18.9%
COC(=O)c1ccc2[nH]c(-c3ccc(OC)cc3OC)cc(=O)c2c1 [Example 64] |  | 17.7% | 48.2% | 10.1%
COC(=O)c1ccc2[nH]c(-c3ccncc3)cc(=O)c2c1 [Example 70] |  | 22.3% | 21.4% | 17.1%
COC(=O)c1ccc2[nH]c(-c3ccco3)cc(=O)c2c1 [Example 76] |  | 21.3% | 25.6% | 14.5%
CCOC(=O)c1cccc2c(=O)cc(-c3cccc(Cl)c3)[nH]c12 [Example 86] |  | 20.1% | 62.5% | 29.5%
Cc1ccc(-c2cc(=O)c3cccc(C(=O)O)c3[nH]2)c(C)c1 [Example 95] |  | 24.2% | 22.8% | 
CCCCCCCCc1ccc(-c2cc(=O)c3cccc(C(=O)OCC)c3[nH]2)cc1 [Example 96] |  | 21.5% | 23.8% | 
CCCCCCCCc1ccc(-c2cc(=O)c3cccc(C(=O)O)c3[nH]2)cc1 [Example 97] |  | 22% | 33.7% | 
CCOC(=O)c1cccc2c(=O)cc(-c3ccc(OC)c(OC)c3)[nH]c12 [Example 98] |  | 16.4% | 20.4% | 16.1%
COc1ccc(-c2cc(=O)c3cccc(C(=O)O)c3[nH]2)cc1OC [Example 99] |  | 13.2% | 21.7% | 36.8%
COC(=O)c1cccc2c1N=C(c1ccccc1Cl)CC2=O [Example 101, Methyl 2-(2-chlorophenyl)-4-quinolone-8-carboxylate] |  | 17.4% | 14.7% | 
CCOC(=O)c1cccc2c(=O)cc(-c3ccc(Cl)cc3)[nH]c12 [Example 103] |  | 14.7% | 12.4% | 
CCOC(=O)c1cccc2c(=O)cc(-c3ccccc3C)[nH]c12 [Example 104] |  | 10.4% | 19.8% | 53.7%
CCOC(=O)c1cccc2c(=O)cc(-c3ccc(C)c(C)c3)[nH]c12 [Example 105] |  | 17.3% | 10.4% | 
CCOC(=O)c1cccc2c(=O)cc(-c3ccc(C(C)C)cc3)[nH]c12 [Example 106] |  | 33.4% | 44% | 50.9%

Structure (SMILES) | inhibition in vivo at 200 mg/kg [1] | inhibition in vivo at 10 mg/kg [2] | inhibition at 1 µM [3] | inhibition in vivo at 200 mg/kg [1, 4]
CCCOC(=O)c1cccc2c(=O)cc(-c3ccccc3Cl)[nH]c12 [Example 111] |  | 2.4% | 7.8% | 
CCCCCCOC(=O)c1cccc2c(=O)cc(-c3ccccc3Cl)[nH]c12 [Example 113] |  | 10.5% | 20.5% | 
O=C(OCCCO)c1cccc2c(=O)cc(-c3ccccc3Cl)[nH]c12 [Example 115] |  | 12.4% | 27.4% | 
O=C(OCCCCCO)c1cccc2c(=O)cc(-c3ccccc3Cl)[nH]c12 [Example 116] |  | 15% | 23.7% | 
O=C(OCCCCCCO)c1cccc2c(=O)cc(-c3ccccc3Cl)[nH]c12 [Example 117] |  | 50% | 8.7% | 
O=C(OCCOc1ccccc1)c1cccc2c(=O)cc(-c3ccccc3Cl)[nH]c12 [Example 119] |  | 47% | 73.4% | 
N#CCOC(=O)c1cccc2c(=O)cc(-c3ccccc3Cl)[nH]c12 [Example 121] |  | 54.4% | 3.4% | 
CC(=O)COC(=O)c1cccc2c(=O)cc(-c3ccccc3Cl)[nH]c12 [Example 122] |  | 14.7% | 20.4% | 
CCOC(=O)COC(=O)c1cccc2c(=O)cc(-c3ccccc3Cl)[nH]c12 [Example 123] |  | 16% | 17.4% | 
CCOC(=O)CCCOC(=O)c1cccc2c(=O)cc(-c3ccccc3Cl)[nH]c12 [Example 124] |  |  |  | 14.5%
O=C(OCC(O)CO)c1cccc2c(=O)cc(-c3ccccc3Cl)[nH]c12 (stereo not drawn) [Example 126] |  | 15.3% | 19.2% | 
CC(C)COCCOC(=O)c1cccc2c(=O)cc(-c3ccccc3Cl)[nH]c12 [Example 127] |  | 13.3% | 25.4% | 
O=C(OCCOCCO)c1cccc2c(=O)cc(-c3ccccc3Cl)[nH]c12 [Example 128] |  | 10.7% | 25% | 
CCOCCOCCOC(=O)c1cccc2c(=O)cc(-c3ccccc3Cl)[nH]c12 [Example 129] |  | 5.4% | 10.2% | 
O=C(OCCO)c1cccc2c(=O)cc(-c3cccc(Cl)c3)[nH]c12 [Example 132] |  | 18.6% | 55.5% | 
Cc1ccccc1-c1cc(=O)c2cccc(C(=O)OCCO)c2[nH]1 [Example 134] |  | 10.8% | 5.2% | 
Cc1ccc(-c2cc(=O)c3cccc(C(=O)OCCO)c3[nH]2)cc1 [Example 135] |  | 35% | 27.3% | 
Cc1ccc(-c2cc(=O)c3cccc(C(=O)OCCO)c3[nH]2)cc1C [Example 137] |  | 20% | 10.8% | 
COc1ccc(-c2cc(=O)c3cccc(C(=O)OCCO)c3[nH]2)cc1 [Example 138] |  | 12.7% | 25.4% | 
COc1ccc(-c2cc(=O)c3cccc(C(=O)OCCO)c3[nH]2)c(OC)c1 [Example 139] |  | 18.4% | 63.3% | 
COc1ccc(-c2cc(=O)c3cccc(C(=O)OCCO)c3[nH]2)cc1OC [Example 140] |  | 19.4% | 18.3% | 
